Source: EP2229935A1, “Peptide derivatives or pharmaceutically acceptable salts thereof, method for producing the same, use of said derivatives and pharmaceutical composition” (Nebolsin, Vladimir Evgenievich, priority 1997, dated 1999)
Counter-ions that a name gives are not always drawn. Like-named read-outs stand apart in the source and are kept apart here. Marks after values point to notes of the source that are not given here.

How the values were obtained:
[1] = test system: hepatic P-450 cytochrome system; assay: Hexenal sleep duration in mice; type: in vivo; conditions: CBF1 mice, oral 3 days, control 25.91 ± 1.57
Experimental: Change in Hexenal sleep (HS) duration is the in vivo measurable index of hepatic P-450 cytochrome system condition.
Studies were carried out on male mice of the lines BALB/c*h75, C57B1/6, CBA, DBA/2, first generation CBF1 and BDF1 hybrides, with initial mass 18-20 g, each group including 10 mice; and on mongrel male guinea pigs with initial mass 250-300 g, each group including 24 animals. All the test compounds (from II to LII) were administered orally in drinking water and for three days at doses 50 and 500 µg/kg. Hexenal hydrochloride at a dose […] of animal mass was administered 24 hours after the last drug administration, except for line BALB/c*h75 mice, which were administered Hexenal at a dose 60 µg/kg at the same terms, and guinea pigs for which Hexenal dose was 30 µg/kg. HS duration was determined in minutes.

superoxide anion-radical = assay: Superoxide anion-radical formation in the xantine-xantine oxidase system (chemiluminescence); type: biochemical
Experimental: Effect of the compounds of general formula (I) on change in chemiluminescence (CL) determined by hydroxyl radical ( OH) and superoxide anion-radical (O2-), in the model chemical and enzymatic systems.
5 to 10 ml of the test compounds dissolved in water were at needed concentration introduced into a cuvette. A total sample volume was 0.5 ml. • B. Superoxide anion-radical in the mixture of xantine and xantine oxidase [Afanas'ev I., Suslova T., Cheremisina Z. et al. Study of antioxidant properties of metal aspartates.
Incubation medium comprised 5 mM KH2PO4; 0.2 IU/ml xantine oxidase. Xantine at concentration 1 mM was introduced into sample through a dispencer. Luceginine (0.2 mM) was used in this system as luminiscence sensitizer.
CL signal indication was performed by its integration every 10 seconds for 5 minutes. CL flash recording duration after mixing ingredients, depended on a particular process kinetics. For each system, CL light sum (mV) was determined in the control samples without preparations (I-) and in samples comprising respective concentrations of preparations (I+). To estimate CL inhibition (activation) degree, the I+/I- ratio (in relative units) was found in the studied systems.
AOF formation and effect of the test compounds on this process were recorded on the Luminometer-1251 instrument (LKB, Sweden).
Because of such "distension" of the kinetic curve, chemiluminescence light sum was recorded during the first 3-5 minutes which reflected a total amount of light quantums produced in the system till achieving the maximum CL intensity values.

[2] = test system: Strain Aichi of type A human influenza virus; type: in vivo; conditions: for MLT, days: series with Control - 2 (9.1), 3 days before and 10 days following infection; for Survival rate in percent: series with Control - 2 (34.5); for Protection degree in percent: series with Control - 2
[3] = test system: Isolate HIV-1/IV17 of type 1 human immunodeficiency virus; assay: Viability of MT-4 cells acutely infected with HIV-1; type: cell-based; conditions: Human immunodeficiency virus 1, MT4, 168 h, day 7, series 2 (infected cells 24, non-infected 88), read-out: Viability of cells in percent
Experimental: Study was carried out on the culture of human lymphoblastoid cells MT-4. Isolate HIV-1/IV17 of type 1 human immunodeficiency virus from the collection of the D.I.Ivanovsky Institute for Virology was used in experiment. The test compounds of general formula (I): III, VI, VII were introduced into cellular culture at concentrations 1.0; 0.1 and 0.01 µg/ml. The reference drug Azidothymidine was introduced at a dose 0.05 µM/ml. The compounds were introduced into the culture of MT-4 cells at a dose 1000 TCD50 one hour prior to virus introduction. Viability of MT-4 cells was estimated by day 7 of experiment.
Viability of cells was the main efficacy parameter of the test compounds.

hydroxyl radical = assay: Hydroxyl radical formation in the Fenton reagent (chemiluminescence); type: biochemical
Experimental: Active oxygen forms (AOF) of different nature were generated in the following systems: • A. Hydroxyl radical - in the mixture of FeSO4 with H2O2 (the Fenton reagent) [Halliwell B. Superoxide-dependent formation of hydroxyl radicals in the presence of iron salts. […] Incubation medium comprised 5 mM KH2PO4 (pH 7.4); 5 mM FeSO4; 2 mM luminol. H2O2 at final concentration 5 mM was introduced into a cuvette through a dispencer following background luminescence recording of the reagents' mixture. 5 to 10 ml of the test compounds dissolved in water were at needed concentration introduced into a cuvette.
CL flash recording duration after mixing ingredients, depended on a particular process kinetics. For each system, CL light sum (mV) was determined in the control samples without preparations (I-) and in samples comprising respective concentrations of preparations (I+). To estimate CL inhibition (activation) degree, the I+/I- ratio (in relative units) was found in the studied systems.
When H2O2 was introduced into phosphate buffer comprising iron sulfate, CL flash occured which was caused by formation of predominantly hydroxyl radical in the reaction mixture.

mongrel male rats [4] = assay: Hypolipidemic activity: experimental hyperlipidemia (atherogenic load); conditions: atherogenic diet, oral last four days; for HDL-CS / Total CS / Triglycerides: blood; for Kcs: cholesterol index;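 as to all read-outs here: serum drawn 18 h after the final dose from rats deprived of food over that interval, groups of 10 animals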
mongrel male rats [5] = conditions: po, 96 h
mongrel male mice = assay: Delayed hypersensitivity induced by picryl chloride (TCB), local ointment; type: in vivo; conditions: mice, TCB
Experimental: Effect study of the compounds on the delayed type hypersensitivity reaction induced in mice by 2.4.6-trichlorobenzol (TCB) was carried out according to the method of Tarayre et al. [Tarayre J.P., Barbara M., Aliaga M., Tisne-Versilles. Comparative actions of immunosuppressants, glucocorticoids and non-steroidal antiinflammatory drugs on various models of delayed hypersensitivity and on a non-immune inflammation in mice. Arzneim.-Forsch. Drug Res. (1990), Vol. 40, pip.1125-1131].
Studies were conducted on mongrel male mice with initial body mass 30-35 g. Each group included 10 animals. Mice were sensitized with 0.1 ml 3% TCB solution in acetone application on a shaved abdominal area. In 7 days, the anaphylaxis-provoking TCB dose (0.025 ml of 3% solution) was applied on both surfaces of the right ear. In 30 minutes 0.05 ml of the test ointment were rubbed into the same surfaces. 24 hours after edema induction, mice were sacrified, ears were cut off and weighed. Allergic reaction intensity was assessed by change in weight in grams of the right ear (the test one) in relation to the left ear (the control ear).
Allergic reaction inhibition expressed in percent was calculated according to the formula: 100-[(R-L(exper.))/(L):(R-L(control))/(L)x100](%) [formula] where R - the right ear weight, L - the left ear weight.
The test compounds were applied on the ear in the form of 1% and 5% ointment the base of which were 10% methylcellulose solution and propylene glycol at 1:1 ratio.
Groups of animals: • Group 1 - control, ointment base without active substance was applied on the ear of animals. • Group 2 - ointment base comprising 1% compound III was applied on the ear of animals. • Group 3 - ointment base comprising 1% compound XVII was applied on the ear of animals. • Group 4 - ointment base comprising 5% compound XLVIII was applied on the ear of animals.

[6] = test system: Lewis pulmonary carcinoma (LLC); assay: Lewis pulmonary carcinoma growth; type: in vivo; conditions: mice with LLC, day 12
Experimental: Experiments were carried out on male mice with initial body mass 18-20 g. Each group included 10 animals. […] Administration of compounds II, III, IX, X, XII, XIV, XV, XVI, XVII, XIX, XXII, XLVII in drinking water was commenced 24 hours following transplantation and continued till the end of experiment. Effect of the compounds on Lewis rat pulmonary carcinoma (LLC) was estimated by day 12 of experiment by change in tumor volume expressed in mm^3.

[7] = test system: Lewis pulmonary carcinoma (LLC); assay: Lewis pulmonary carcinoma spontaneous metastasizing, oral administration; type: in vivo; conditions: BDF1 female mice with LLC, oral 24 days; for Mean number of metastases: day 25
Experimental: Each group included 15 animals. 0.3 ml of LLC tumor tissue suspension was intramuscularly injected to mice. Henks solution was used as a solvent. […] Moscow (1992) 13 pp.]. […]

peritoneal macrophages = assay: Activity of peritoneal macrophages (NBT reduction test); type: in vivo, mongrel white male mice
Experimental: Change in the activity of peritoneal macrophages (PM) as effected by the test compounds was studied.
Experiments were carried out on mongrel white male mice with initial body mass 20-22 g. Each group included 10 animals. Compounds III, VI, XLIV were dissolved in normal saline (NS). The test compounds were administered to animals orally for three days at doses 50 and 500 µg/kg. Animals of the control group were given equal volume of NS. Mice were sacrified 20 hours after the last compound administration, peritoneal cavity was washed with 1.5 ml Henks solution comprising 5 U/ml heparine. 0.1 ml of wash solution were incubated for 30 minutes at 37°C with 0.1 ml 0.2% nitroblue tetrasolium (NBT) solution, then smears were prepared. Nuclei were additionaly stained with o.1% neutral red solution. Results were expressed in percent of active cells [Klimov V.V., Kolovkina T.V. Nitroblue tetrasolium reduction test stimulated with pyrogenal. Laborotornoye delo (Laboratory matter) (1982), No 10, pp. 624-625]. […]

[8] = 0.01 mM, control of the series as in the table
[9] = 0.1 mM, control of the series as in the table
[10] = 1 mM, control of the series 5616 ± 173, 5391 ± 195, 7290 ± 128 or 6776 ± 150
[11] = 1 mM, control of the series 7839 ± 171, 1120 ± 163, 4974 ± 283 or 1332 ± 172

## COC(=O)[C@H](Cc1c[nH]cn1)NC(=O)CC[C@H](N)C(=O)O [compound VII, γ -L-GLUTAMYL-HISTIDINE METHYL ETHER DIHYDROCHLORIDE]
[1]; 50 µg/kg
  Hexenal sleep duration (minutes): 17.62 ± 0.96* minutes
[1]; 500 µg/kg
  Hexenal sleep duration (minutes): 16.99 ± 1.33* minutes
Superoxide anion-radical; 0.01 mM
  relative effect: 1+/I-: 0.91
Superoxide anion-radical; [8]
  Chemiluminiscence intensity (mV) + σn-1: 5082 ± 278 mV
Superoxide anion-radical; 0.1 mM
  relative effect: 1+/I-: 0.72
Superoxide anion-radical; [9]
  Chemiluminiscence intensity (mV) + σn-1: 4050 ± 291 mV
Superoxide anion-radical; 1 mM
  relative effect: 1+/I-: 0.20
Superoxide anion-radical; [10]
  Chemiluminiscence intensity (mV) + σn-1: 1114 ± 51 mV
[2]; mice, influenza virus, 500 µg/kg
  increase in MLT, survival rate and protection degree: most manifested
[3]
  viability at 0.01 µg/mL: 34%
  viability at 0.1 µg/mL: 49%
  viability at 1 µg/mL: 51%
Hydroxyl radical; [9]
  Chemiluminiscence intensity (mV) + σn-1: 1158 ± 102 mV
Hydroxyl radical; 1 mM
  relative effect: I+/I-: 0.15
Hydroxyl radical; [11]
  Chemiluminiscence intensity (mV) + σn-1: 165 ± 7 mV
Mongrel male rats [4]; 50 µg/kg
  HDL-CS: 26,0±1,9
  Total CS: 72,3±4,9**^A
  Triglycerides: 250,6±12,0
  Kcs: 1,78±0,12***^A
Mongrel male rats [4]; 500 µg/kg
  HDL-CS: 22,3±2,2
  Total CS: 78,1±3,3
  Triglycerides: 251,4±12,71
  Kcs: 2,5±0,17**^A
Mongrel male rats [5]; 0.05 mg/kg
  LDL-CS+ VLDL-CS: 46,3±3,2**^A
Mongrel male rats [5]; 0.5 mg/kg
  LDL-CS+ VLDL-CS: 55,8±3,9**^A

## O=C(O)CCCC(=O)NCCc1c[nH]c2ccccc12 [compound XVII, N-GLUTARYLTRYPTAMINE]
Mongrel male mice; 1% ointment
  Reaction inhibition (%): 24%
  weight increment: 6.1 ± 0.59 g
Mongrel male mice; 1% ointment on right ear 30 minutes after challenge, 24 hours
  Weight of years (g) Right: 21.6 ± 1.02 g
Mongrel male mice; left (control) ear of animals given 1% ointment
  Weight of years (g) left: 15.5 ± 1.02 g
[6]; compound in drinking water
  Growth inhibition percent: 48%
[6]; compound in drinking water from 24 hours after transplantation
  Tumor volume (mm^3): 1367 ± 233** mm^3

## CC(=O)N[C@@H](CCC(=O)NCCc1c[nH]cn1)C(=O)O [VI, N -ACETHYL-γ-L-GLUTAMYLHISTAMINE]
[7]; 50 µg/kg
  Mean number of metastases: 35.5 ± 4.5*^2
  Metastasizing inhibition percent: 24.0%
[7]; 500 µg/kg
  Mean number of metastases: 39.0 ± 14.0
  Metastasizing inhibition percent: 17.0%
[1]; 50 µg/kg
  Hexenal sleep duration (minutes): 16.86 ± 1.38*** minutes
[1]; 500 µg/kg
  Hexenal sleep duration (minutes): 14.39 ± 1.73*** minutes
Superoxide anion-radical; [8]
  Chemiluminiscence intensity (mV) + σn-1: 7295 ± 106 mV
Superoxide anion-radical; 0.1 mM
  relative effect: 1+/I-: 0.76
Superoxide anion-radical; [9]
  Chemiluminiscence intensity (mV) + σn-1: 5518 ± 131 mV
Superoxide anion-radical; 1 mM
  relative effect: 1+/I-: 0.12
Superoxide anion-radical; [10]
  Chemiluminiscence intensity (mV) + σn-1: 902 ± 15 mV
[2]; 50 µg/kg orally
  MLT, days: 11.24*^2 days
  Survival rate in percent: 73.3*^2%
  Protection degree in percent: 38.8%
[2]; 500 µg/kg orally
  MLT, days: 11.62*^2 days
  Survival rate in percent: 79.3*^2%
  Protection degree in percent: 44.8%
[3]
  viability at 0.01 µg/mL: 45%
  viability at 0.1 µg/mL: 49%
  viability at 1 µg/mL: 54%
Hydroxyl radical; [8]
  Chemiluminiscence intensity (mV) + σn-1: 5014 ± 186 mV
Hydroxyl radical; 0.1 mM
  relative effect: I+/I-: 0.63
Hydroxyl radical; [9]
  Chemiluminiscence intensity (mV) + σn-1: 3110 ± 210 mV
Hydroxyl radical; 1 mM
  relative effect: I+/I-: 0.05
Hydroxyl radical; [11]
  Chemiluminiscence intensity (mV) + σn-1: 257 ± 74 mV
Mongrel male rats [4]; 50 µg/kg
  HDL-CS: 35,7±5,6*^A
  Total CS: 86,0±5,2
  Triglycerides: 141,2±16,1***^A
  Kcs: 1,41±0,16***^A
Mongrel male rats [4]; 500 µg/kg
  HDL-CS: 45,8±3,5***^A
  Total CS: 70,8±3,7***^A
  Triglycerides: 127,2+7,1***^A
  Kcs: 0,55±0,04***^A
Mongrel male rats [5]; 0.05 mg/kg
  LDL-CS+ VLDL-CS: 50,3±5,5**^A
Mongrel male rats [5]; 0.5 mg/kg
  LDL-CS+ VLDL-CS: 25,0±1,6***^A
Peritoneal macrophages; mice, oral three days at 50 and 500 µg/kg
  portion of active macrophages: at a dose 50 µg/kg
Peritoneal macrophages; score 0 (no formazane inclusions, inactive PM), 50 µg/kg orally for three days
  Activity of macrophages, percent: 17.9 ± 1.4%
Peritoneal macrophages; score 0 (no formazane inclusions, inactive PM), 500 µg/kg orally for three days
  Activity of macrophages, percent: 20.3 ± 3.4%
Peritoneal macrophages; score 1 (single formazane inclusions), 50 µg/kg orally for three days
  Activity of macrophages, percent: 30.9 ± 3.0%
Peritoneal macrophages; score 1 (single formazane inclusions), 500 µg/kg orally for three days
  Activity of macrophages, percent: 37.9 ± 3.1%
Peritoneal macrophages; score 2 (inclusions fill up to 1/3 of PM cytoplasm), 50 µg/kg orally for three days
  Activity of macrophages, percent: 40.3 ± 2.1%
Peritoneal macrophages; score 2 (inclusions fill up to 1/3 of PM cytoplasm), 500 µg/kg orally for three days
  Activity of macrophages, percent: 34.0 ± 4.0%
Peritoneal macrophages; score 3 (inclusions fill up to 1/2 of PM cytoplasm), 50 µg/kg orally for three days
  Activity of macrophages, percent: 10.4 ± 1.9%
Peritoneal macrophages; score 3 (inclusions fill up to 1/2 of PM cytoplasm), 500 µg/kg orally for three days
  Activity of macrophages, percent: 7.1 ± 2.0%
